Results taken from paper PMC10578927, “An unconventional gatekeeper mutation sensitizes inositol hexakisphosphate kinases to an allosteric inhibitor” (eLife, 2023).
Blank lines part the entries; values can stand above or below the compound they belong to.

Assays:
IP6K1^L210V [1] = target: T1, IP6K1^L210V (Homo sapiens, UniProt Q92551, L210V); assay: NMR activity assay, [13C6]-InsP6 to 5PP-InsP5, with ATP-regenerating system; format: biochemical; details: for inhibition of IP6K1^L210V: 10 µM concentration
T1 construct: made in house; host or cells: E. coli Arctic Express
Excerpt: (§1) The gatekeeper mutants L210G and L210A of IP6K1 were generated by site-directed mutagenesis and the enzymes were recombinantly expressed, analogous to the WT kinase, as MBP-fusion proteins. To assess their catalytic activity, we used an NMR assay that harnesses fully ^13C-labeled InsP6 as a substrate and enables direct product readout of 5PP-InsP5 (Figure 2b and Figure 2—figure supplement 1; [Puschmann et al., 2019]; [Harmel et al., 2019]). […] Likewise, IP6K2 suffered a drastic decline in substrate turnover upon gatekeeper mutation to glycine (Figure 2—figure supplement 2).
(§2) The NMR assay for IP6K activity was performed similarly as described before ([Harmel et al., 2019]) with slight alterations. Enzyme assays were performed in D2O in a total volume of 150 µl containing 20 mM 4-(2-hydroxyethyl)-1-piperazineethanesulfonic acid (HEPES) pH* 6.8, 50 mM NaCl, 6 mM MgCl2, 1 mM ATP, 0.2 mg/ml BSA, 1 mM DTT, 5 mM creatine phosphate and 1 U/ml creatine kinase (ATP-regenerating system) and 50 nM kinase if not otherwise stated. HEPES, NaCl, and BSA were prepared as buffer A and DTT and creatine phosphate as buffer B in D2O and were adjusted to pH* 6.8, respectively. If applicable, inhibitor was added as a DMSO-d6 stock in a twofold dilution series at a final DMSO concentration of 1% if not otherwise mentioned. Otherwise, DMSO-d6 was added to the same percentage. The samples were equilibrated at 37°C for 3 min and the reaction initiated by adding 100 µM [^13C6]-InsP6.

IP6K1^wt [2] = target: T2, IP6K1^wt (Homo sapiens, UniProt Q92551); assay: as above; format: biochemical
T2 construct: made in house; host or cells: E. coli Arctic Express
Excerpt: as §1, §2

IP6K1^wt [3] = target: T2, IP6K1^wt; assay: Michaelis–Menten and Lineweaver–Burk kinetics (NMR); format: biochemical
Protocol: (§3) Kinetic assays were performed in D2O in a total volume of 500 µl containing the same buffer components for IP6K and IP6KA constructs as stated for the NMR activity assays above. […] If applicable, inhibitor was added as a DMSO-d6 stock at a final DMSO concentration of 1%. Otherwise, DMSO-d6 was added to the same percentage. The samples were equilibrated at 37°C for 5 min and the reaction initiated by adding 100 µM [^13C6]-InsP6. The reaction time was adjusted so that conversion would not exceed 20% to remain in the linear range for initial velocity measurements. The reaction was quenched with 38 µl 700 mM EDTA pH* 8.0 and transferred into an NMR tube before being measured on a Bruker […] 600 PLUS with an NMR pulse program developed previously ([Harmel et al., 2019]). Initial velocities were calculated by dividing the amount of generated product by the product of reaction time in seconds and mass of the kinase in mg.

IP6K = details: Figure 1b; ref Padmanabhan et al., 2009 (TNP); Wormald et al., 2019 (Barrow-24); Moritoh et al., 2021; Terao et al., 2018 (SC-919); cited from earlier work
IP6K1^L210V [4] = target: T1, IP6K1^L210V; assay: High-throughput screen, reverse kinase reaction (5PP-InsP5 + ADP), Kinase-Glo luminescence; format: biochemical
Excerpt: Although the NMR assay described above provides direct product detection and the ability to distinguish the PP-InsP isomers ([Harmel et al., 2019]), it is inherently slow and thus not compatible with a high-throughput screen. The use of luminescence-based readouts of ATP consumption to measure IP6K activity is error-prone due to the kinase’s unusually low affinity for ATP, the sensitivity to the ATP/ADP ratio, and its inherent ATPase activity ([Wundenberg et al., 2014]; [Voglmaier et al., 1996]). Nevertheless, we were able to take advantage of these properties by examining the reverse reaction of IP6K1 with the Kinase-Glo assay, where 5PP-InsP5 and ADP are converted to InsP6 and ATP (Figure 3a).
The following solutions were prepared as 4× stock solutions: kinase buffer (HEPES pH 7.4, NaCl, BSA, MgCl2, Tween-20, DTT, and IP6K1^L210V), DMSO/inhibitor, ADP, and 5PP-InsP5. Final concentrations after optimization were 1 mM ADP, 20 mM HEPES, 50 mM NaCl, 0.2 mg/ml BSA, 2 mM MgCl2, 0.05% Tween-20, 1 mM DTT, 250 nM IP6K1^L210V, and 50 μM 5PP-InsP5. The reactions were carried out in 384-well plates following this procedure. 5 µl 4× kinase buffer (buffer only for no kinase controls), 5 µl 4× DMSO or inhibitor and 5 µl 4× ADP solution were subsequently added to all wells. After 10 min equilibration, 5 μl 4× 5PP-InsP5 were added to start the reaction (milli-Q water for negative controls). After 3 hr at room temperature, 20 µl of Promega Kinase-Glo Plus reagent were added and the luminescence read out with a Tecan Infinite M Plex reader using 100-ms exposure time after 10 min of equilibration.
ADP was prepared in a 2× stock solution in milli-Q water and the pH adjusted to 7.0. The following solutions were prepared as 4× stock solutions: kinase buffer (HEPES pH 7.4, NaCl, BSA, MgCl2, Tween-20, DTT, and IP6K1^L210V) and 5PP-InsP5. Final concentrations were 1 mM ADP, 20 mM HEPES, 50 mM NaCl, 0.2 mg/ml BSA, 2 mM MgCl2, 0.05% Tween-20, 1 mM DTT, 250 nM IP6K1^L210V, and 50 µM 5PP-InsP5. The reactions were carried out in 384-well plates following this procedure. 10 µl 2× ADP solution were added to all wells, then 0.2 µl DMSO or compound (1 mM in DMSO) were added followed by the addition of 5 µl 4× kinase buffer. For dose–response curves, compounds were added in serial dilution (twofold serial dilutions in DMSO across multiple plates prior to compound transfer to assay plates, 9 concentrations in total). After 10 min equilibration, 5 µl 4× 5PP-InsP5 were added to start the reaction (milli-Q water for negative controls). After 3 hr at room temperature, 20 µl of Promega Kinase-Glo Plus reagent were added and the luminescence read out with a Tecan Infinite M Plex or Perkin Elmer EnVision reader using 100ms exposure time after 10 min of equilibration. In the counter screen, dose–response curves were measured in the absence of kinase and presence of 50 µM ATP.

IP6K1^wt [5] = target: T2, IP6K1^wt; assay: as above; format: biochemical; details: dose-dependent reconfirmation
HEK293 = assay: Cytotoxicity, cell survival after 72 hr incubation; format: cell-based; details: HEK293, 10 µM, 72 hr incubation
Protocol: (§4) Supplementary file elife-88982-supp2.xlsx: Supplementary file 2. Cytotoxicity of selected hits indicated by cell survival after 72 hr incubation at 10 µM concentration. All compounds were measured in independent triplicates and errors represent standard deviation. Redox activity of selected compounds measured via a photometric surrogate assay. Reactions contained 50 mM HEPES pH 7.5, 50 mM NaCl, 200 mM DTT, and 20 µM resazurin, and were incubated for 1 hr at 37°C.

HepG2 = assay: Cytotoxicity, cell survival after 72 hr incubation; format: cell-based; details: HepG2, 10 µM, 72 hr incubation
Protocol: as §4

IP6K1^L210V [6] = target: T1, IP6K1^L210V; assay: Michaelis–Menten and Lineweaver–Burk kinetics (NMR); format: biochemical; details: Michaelis–Menten, read-out: KM for ATP
Protocol: as §3

T2 sequence (Q92551 whole entry): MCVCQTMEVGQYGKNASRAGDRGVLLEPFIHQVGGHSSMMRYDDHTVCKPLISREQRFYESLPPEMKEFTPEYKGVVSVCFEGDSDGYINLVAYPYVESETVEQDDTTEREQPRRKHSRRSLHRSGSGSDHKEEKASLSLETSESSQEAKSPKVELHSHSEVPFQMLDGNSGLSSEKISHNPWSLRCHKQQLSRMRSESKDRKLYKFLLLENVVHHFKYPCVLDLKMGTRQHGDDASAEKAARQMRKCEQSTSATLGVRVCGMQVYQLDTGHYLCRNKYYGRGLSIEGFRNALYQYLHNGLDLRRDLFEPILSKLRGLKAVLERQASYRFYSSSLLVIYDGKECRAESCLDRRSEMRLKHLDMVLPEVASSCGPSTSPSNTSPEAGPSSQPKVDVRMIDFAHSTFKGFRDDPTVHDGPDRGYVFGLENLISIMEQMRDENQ
T1 sequence (Q92551 whole entry L210V): as the sequence (Q92551 whole entry) above, with L210V counted along it

Compound: O=[N+]([O-])c1ccc(CNc2nc(NCc3cccc(C(F)(F)F)c3)nc3[nH]cnc23)cc1 [TNP, N2-(m-trifluorobenzyl)-N6-(p-nitrobenzyl)purine, reference compound]
- difference in potency against IP6K1^wt and IP6K1^L210V (IP6K1^L210V [1]; NMR IC50 curves): no significant difference in potency
- IC50 (IP6K1^L210V [1]; NMR assay, Figure 4—figure supplement 2b): 1410 nM
- IC50 (IP6K1^wt [2]; Figure 4—figure supplement 2b): 2150 nM
- mechanism of inhibition (Lineweaver–Burk) (IP6K1^wt [3]; versus ATP): competitive mechanism of action
- IC50 (IP6K): 470 nM

Compound: Cn1c(=O)n(-c2ccc(C(C)(C)C#N)cc2)c2c3cc(-c4cnc5ccccc5c4)ccc3ncc21 [BEZ235, reference compound]
- inhibition of IP6K1^L210V (IP6K1^L210V [1]; NMR assay): inhibition of IP6K1^L210V was not observed either
- inhibitory activity against IP6K1^wt (IP6K1^wt [2]; 10 µM concentration): none of these compounds exhibited any inhibitory activity

- inhibition of IP6K1^L210V (IP6K1^L210V [1]; NMR assay): completely inactive
Compound: O=C1c2ccccc2C(=O)N1c1ccc(-c2nc3ccc(N4C(=O)c5ccccc5C4=O)cc3[nH]2)cc1 [A1]

Compound: O=C(O)c1ccc2c(c1)C(=O)N(c1ccc(-c3nc4ccccc4[nH]3)cc1)C2=O [A2]
- inhibition of IP6K1^L210V (IP6K1^L210V [1]; NMR assay): inhibited IP6K1^L210V, albeit with severely reduced potency

Compound: O=c1c(O)c(-c2ccc(O)c(O)c2)oc2cc(O)cc(O)c12 [compound 405356, quercetin, reference compound]
- IC50 (IP6K1^L210V [4]; Kinase-Glo, reverse reaction, dose-dependent reconfirmation): 2860 nM
- Z-score (IP6K1^L210V [4]; primary screen, IP6K1^L210V): -14.6
- %Activity (IP6K1^L210V [4]; primary screen, residual activity of IP6K1^L210V): 7.8%
- IC50 (IP6K1^wt [5]): 12100 nM
- Cell number (%) (HEK293): 104.0 ± 1.4%
- Cell number (%) (HepG2): 65.9 ± 16.9%

- Km (IP6K1^L210V [6]): 412 ± 81 µM
- Km (IP6K1^wt [3]; Michaelis–Menten, read-out: KM for ATP): 186 ± 23 µM
Compound: Nc1ncnc2c1ncn2[C@@H]1O[C@H](COP(=O)(O)OP(=O)(O)OP(=O)(O)O)[C@@H](O)[C@H]1O [ATP]
